Laboratory results from paper PMC11496002 (Epilepsia, 2024).
Read-outs that look alike come from different tables or passages of the source.

How the values were obtained:
[1] = Plasma and brain pharmacokinetics after intraperitoneal administration; conditions: for Brain/Plasma ratio AUC0-inf / Brain/Plasma ratio Cmax: assumes brain density 1 g/ml
[2] = Monitoring for sedation via physical observation; type: in vivo, mouse; conditions: all mice treated with CBD (70-150 mg/kg with CLB 5 + VPA 75 mg/kg ip)
Core body temperature = type: in vivo, mouse; conditions: all mice treated with CBD (with CLB + VPA) ip
in vivo = conditions: Scn1a^WT/WT (wild-type), mouse, ip
[3] = comedication with CLB; cited from earlier work
[4] = system: hyperthermia-induced seizures in Scn1a^A1783V/WT mice; conditions: cited from earlier work
[5] = mouse, in vivo
[6] = Double (CLB+VPA) ip, Scn1a^WT/WT mice
[7] = Single Drug, each alone ip, Scn1a^WT/WT mice
[8] = Triple (CLB+VPA+CBD) ip, Scn1a^WT/WT mice

SMILES: O=C1CC(=O)N(c2ccccc2)c2cc(Cl)ccc2N1 [N-CLB, N-desmethylclobazam]
- Brain/Plasma ratio AUC0-inf [1, 6]: 1.42
- Brain/Plasma ratio Cmax [1, 6]: 1.39
- Brain/Plasma ratio AUC0-inf [1, 7]: 2.1
- Brain/Plasma ratio Cmax [1, 7]: 1.25
- Brain/Plasma ratio AUC0-inf [1, 8]: 1.56
- Brain/Plasma ratio Cmax [1, 8]: 1.2
- Brain/Plasma ratio AUC0-inf ([1]; Triple (CLB+VPA+STP) ip, Scn1a^WT/WT mice): 2.29
- Exposure when adding CBD to CLB+VPA vs adding STP to CLB+VPA ([1]; mouse, in vivo): higher
- Fold increase of concentrations in triple-drug therapies compared to CLB+VPA ([1]; mouse, in vivo): > 2 fold

SMILES: C=C(C)[C@@H]1CCC(C)=C[C@H]1c1c(O)cc(CCCCC)cc1O [CBD, cannabidiol]
- Signs of sedation [2]: No signs of sedation
- Increase in brain exposure, CBD+CLB+VPA compared to CBD monotherapy ([1]; mouse, in vivo): two-fold
- Post-injection core body temperature compared to baseline pre-injection (Core body temperature): reduction in post-injection core body temperatures

SMILES: CC(C)(C)C(O)/C=C/c1ccc2c(c1)OCO2 (stereo not drawn) [STP, stiripentol]
- half-life (in vivo): 52.1 min
- Increase of STP concentration by CLB [3]: 37%
- Protection against hyperthermia-induced seizures ([4]; STP 100 mg/kg alone): ineffective
- Brain Cmax, CLB + VPA + STP cohort vs STP alone [5]: not different

SMILES: CN1C(=O)CC(=O)N(c2ccccc2)c2cc(Cl)ccc21 [CLB, clobazam]
- Exposure (AUC0-inf), triple-drug therapy (CLB+VPA+STP) vs CLB alone or CLB + VPA ([1]; Scn1a^WT/WT mice): substantially higher
- CLB stand-alone PK in Scn1a^A1783V/WT vs Scn1a^WT/WT mice ([1]; Table S2): comparable PK profile
- Exposure when adding CBD to CLB+VPA vs adding STP to CLB+VPA ([1]; mouse, in vivo): higher
- Brain Cmax, triple-drug therapy (CLB+VPA+STP) vs CLB alone and CLB + VPA ([1]; p<0.0001 vs CLB alone, p=0.0003 vs CLB + VPA): significantly higher

SMILES: C=C(C)[C@@H]1CCC(CO)=C[C@H]1c1c(O)cc(CCCCC)cc1O [7-OH-CBD, 7-hydroxycannabidiol]
- Brain/Plasma ratio AUC0-inf [1, 7]: 0.82
- Brain/Plasma ratio Cmax [1, 7]: 0.93
- Brain/Plasma ratio AUC0-inf [1, 8]: 1.02
- Brain/Plasma ratio Cmax [1, 8]: 0.86

SMILES: C[C@H]1CNCCc2ccc(Cl)cc21 [LCS, Lorcaserin]
- Protection against hyperthermia-induced seizures ([4]; LCS 10 mg/kg alone): insufficient to prevent hyperthermia-induced seizures

SMILES: CCNC(C)Cc1cccc(C(F)(F)F)c1 (stereo not drawn) [FFA, fenfluramine]
- Protection against hyperthermia-induced seizures ([4]; FFA 25 mg/kg alone): insufficient to prevent hyperthermia-induced seizures

SMILES: CCCC(CCC)C(=O)O [VPA, sodium valproate]
- Brain exposure in CBD+CLB+VPA compared to CLB+VPA or VPA-alone [5]: increase
